The subject of assay [1] is BaF3. The assay is described as follows: Effect on proliferation in BaF3 EPOr cells. The class given is functional, cell-based. The conditions noted are these: Homo sapiens.
In assay [2] the test system is BaF3. The assay is described as follows: Effect on proliferation in wild type BaF3 cells. Format: functional, cell-based. The conditions noted are these: Homo sapiens.

Activity calls are given as the source filed them. No cut-off for these calls is given here.

Take `COc1ccc(C(=O)/C=C/c2ccc(N3C[C@H](CNC(C)=O)OC3=O)cc2)cc1`: the outcome in the assay on BaF3 [1] and in the assay with BaF3 [2] was Active.

(Values after ChEMBL document CHEMBL1143780, “Towards erythropoietin mimicking small molecules” (Bioorg Med Chem Lett, 2007).)
